According to ChEMBL document CHEMBL1122684, “The 3,4-catechol derivative of propranolol, a minor dihydroxylated metabolite” (J Med Chem, 1984):
Where a name gives a salt, the structure may show the parent alone.

Assays:
[1] = target: Beta-1 adrenergic receptor (Cavia porcellus, UniProt B0FL73); assay: Compound was evaluated for competitive antagonism of beta-1 adrenergic receptor in guinea pig atria measured as pA2 (-log KB); type: functional; conditions: read-out: pA2 (converted)
[2] = target: Beta-2 adrenergic receptor (Rattus norvegicus) (UniProt P10608); assay: Compound was evaluated for competitive antagonism of beta-2 adrenergic receptor in rat uterus measured as pA2 (-log KB)
Beta-2 adrenergic receptor (Rattus norvegicus), sequence (P10608 whole entry, looked up): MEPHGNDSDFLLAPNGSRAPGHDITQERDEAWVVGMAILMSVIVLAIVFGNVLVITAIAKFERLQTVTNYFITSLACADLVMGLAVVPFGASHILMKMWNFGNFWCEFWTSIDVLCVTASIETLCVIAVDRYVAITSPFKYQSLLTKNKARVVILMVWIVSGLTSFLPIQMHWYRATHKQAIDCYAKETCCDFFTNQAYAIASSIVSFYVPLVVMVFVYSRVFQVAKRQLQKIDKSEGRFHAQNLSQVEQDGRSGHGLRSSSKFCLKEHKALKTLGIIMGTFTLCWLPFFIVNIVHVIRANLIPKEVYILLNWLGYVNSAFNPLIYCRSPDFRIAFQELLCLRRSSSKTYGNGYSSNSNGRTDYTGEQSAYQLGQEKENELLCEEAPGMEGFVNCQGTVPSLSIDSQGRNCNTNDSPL

Beta-1 adrenergic receptor, sequence (B0FL73 whole entry): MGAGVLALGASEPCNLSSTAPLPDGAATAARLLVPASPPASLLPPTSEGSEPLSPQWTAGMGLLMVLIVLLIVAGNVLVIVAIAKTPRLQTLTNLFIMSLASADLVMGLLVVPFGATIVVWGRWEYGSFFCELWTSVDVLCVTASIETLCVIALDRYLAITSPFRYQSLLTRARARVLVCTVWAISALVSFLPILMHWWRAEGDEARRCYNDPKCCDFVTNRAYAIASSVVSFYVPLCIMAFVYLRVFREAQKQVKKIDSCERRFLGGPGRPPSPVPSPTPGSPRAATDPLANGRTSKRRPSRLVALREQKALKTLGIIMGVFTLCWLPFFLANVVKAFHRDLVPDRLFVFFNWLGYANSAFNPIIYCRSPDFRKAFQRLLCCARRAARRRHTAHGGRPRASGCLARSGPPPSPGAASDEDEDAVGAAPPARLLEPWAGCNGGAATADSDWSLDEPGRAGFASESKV

Row | Kb [1] [nM] | Kb [2] [nM] | SMILES
1 | 50.1 | 29.5 | CC(C)NCC(O)COC1=CC(=O)C(=O)c2ccccc21 (centres undefined)
2 | 5.75 | 2.4 | CC(C)NCC(O)COc1ccc(O)c2ccccc12 (centres undefined) [4-HYDROXYPROPRANOLOL SULFATE]
